The values below come from patent US6040320A, “2-substituted imidazoles useful in the treatment of inflammatory diseases” (Ortho-McNeil Pharmaceutical, Inc., priority 1998, dated 2000).

pIC50: −log10 of the molar value. Some results are limits rather than exact numbers.

In the first experiment the test system is TNF-α. Nature of the experiment: in vitro whole cell assay: LPS-stimulated TNF-α production in PBMC (ELISA). Format: cell-based, human. Conditions: Homo sapiens, PBMC, read-out: TNF-α IC50. How it is done: In addition to the enzyme assay, the compounds of the invention were tested in an in vitro whole cell assay using peripheral blood mononuclear cells ("PBMC") which were obtained from human blood as follows. Freshly obtained venous blood was anticoagulated with heparin, diluted with an equal volume of phosphate buffered saline ("PBS") and placed in a sterile tube or other container. Aliquots (30 mL) of this mixture were transferred to centrifuge tubes which were underlaid with Ficoll-Hypaque (15 mL). The prepared tubes were centrifuged at 400×g without braking for 30 min at room temperature. Approximately 1/2 to 2/3 of the platelet layer above the mononuclear cell band was removed with a pipet. The majority of the mononuclear cell layer was carefully removed using a pipet and these PBMCs were diluted with PBS and spun at 600×g for 15 min. The resulting PBMCs were washed with another portion of PBS and spun at 400×g for 10 min at room temperature. The recovered pellets were diluted in low endotoxin RPMI/1% FCS culture medium and gave a cell concentration of 0.5-2.0 X 10^6 PMBC/mL. A small volume of the suspension was removed for counting on a hemocytometer and the remaining preparation was centrifuged at 200×g for 15 min at room temperature. The recovered pelleted PMBC were resuspended in RPMI/1% FCS to a concentration of 1.67×10^6 /mL.
To run the assay, the PBMC suspension (180 μL) was transferred to duplicate wells of a 96-well flat-bottom microtiter plate and incubated for 1 h at 37° C. A solution of test compound (10 μL: prepared at 20×the desired final concentration) was added to each well and the plate was incubated for 1 h at 37° C. A solution (10 μL) of LPS in RPMI/1% FCS (200 ng/mL) was added and the wells were incubated overnight at 37° C. The supernate (100 μL) was removed from each well and diluted with RPMI/1% FCS (400 μL). The samples were analyzed for TNF-α using a commercial ELISA kit (Genzyme). […] Since imidazoles which are unsubstituted at the 1-position are subject to tautomerization, the substituents listed for R1 and R2 are interchangeable when R3 is hydrogen.
As for `C[Si](C)(C)CCOCn1c(C(=O)CCCO)nc(-c2ccncc2)c1-c1ccc(F)cc1` [Compound 9, 4-Hydroxy-1-[5-(4-fluorophenyl)-4-(4-pyridyl)-1-(2-(trimethylsilyl)ethoxymethyl)imidazol-2-yl]butanone], the pIC50 is less than 5.00.

For `CC(=O)OCCCCc1nc(-c2ccc(F)cc2)c(-c2ccncc2)n1COCC[Si](C)(C)C` [Compound 44], the pIC50 was 6.82.

Still in this experiment, the particulars now being: human PBMC, LPS; read-out: TNF-α IC50.
As for `CCCCc1cc(-c2c(-c3ccc(F)cc3)nc(CO)n2CCCc2ccccc2)ccn1` [Compound 78], the pIC50 was 6.35.

On to `Cc1nc(-c2ccc(F)cc2)c(-c2ccncc2)n1CCCc1ccccc1` [Compound 68], for which the pIC50 was 8.82.

Turning to `O=C1c2ccccc2C(=O)N1CCCn1c(CCCCO)nc(-c2ccncc2)c1-c1ccc(F)cc1` [Compound 52], the pIC50 is 6.70.

Regarding `CCC(=O)Cn1cnc(-c2ccncc2)c1-c1ccc(F)cc1` [Compound 79], the pIC50 was 6.22.

As to `Cc1nc(-c2ccncc2)c(-c2ccc(F)cc2)n1CCCc1ccccc1` [Compound 69], the pIC50 is 7.00.

For the molecule `O=C1c2ccccc2C(=O)N1CCCOCc1nc(-c2ccc(F)cc2)c(-c2ccncc2)n1CCCN1C(=O)c2ccccc2C1=O` [Compound 53], the pIC50 is 6.76.

On to `O=C1c2ccccc2C(=O)N1CCCCn1c(I)nc(-c2ccncc2)c1-c1ccc(F)cc1` [Compound 76], for which the pIC50 was 6.10.

Take `Cc1nc(-c2ccncc2)c(-c2ccc(F)cc2)n1CCCN1C(=O)c2ccccc2C1=O` [Compound 63]: the pIC50 was 7.77.

For the molecule `CC(=O)OCCCCc1nc(-c2ccc(F)cc2)c(-c2ccncc2)n1CCCN1C(=O)c2ccccc2C1=O` [Compound 50], the pIC50 is 6.82.

With `CCc1nc(-c2ccc(F)cc2)c(-c2ccncc2)n1CCCc1ccccc1` [Compound 66], the pIC50 was 8.22.

Take `O=C1c2ccccc2C(=O)N1CCCn1c(CCCCO)nc(-c2ccc(F)cc2)c1-c1ccncc1` [Compound 51]: the pIC50 was 6.76.

With `OCc1nc(-c2ccc(F)cc2)c(-c2ccncc2)[nH]1` [Compound 49], the pIC50 is 6.60.

Turning to `O=C1c2ccccc2C(=O)N1CCCn1c(CO)nc(-c2ccncc2)c1-c1ccc(F)cc1` [Compound 55], the pIC50 was 5.90.

`O=C1c2ccccc2C(=O)N1CCCCc1nc(-c2ccc(F)cc2)c(-c2ccncc2)n1Cc1ccccc1` [Compound 48]: the pIC50 was 5.76.

`Fc1ccc(-c2nc(I)n(CCCc3ccccc3)c2-c2ccncc2)cc1` [Compound 75]: the pIC50 is 8.52.

As for `O=C1c2ccccc2C(=O)N1CCCn1cnc(-c2ccc(F)cc2)c1-c1ccncc1` [Compound 71], the pIC50 is 7.41.

Turning to `O=C1c2ccccc2C(=O)N1CCSCc1nc(-c2ccc(F)cc2)c(-c2ccncc2)[nH]1` [Compound 33], the pIC50 is 6.70.

As to `O=C1c2ccccc2C(=O)N1CCCCn1cnc(-c2ccc(F)cc2)c1-c1ccncc1` [Compound 73], the pIC50 is 6.30.

With `O=C(NCCCSc1nc(-c2ccc(F)cc2)c(-c2ccncc2)[nH]1)c1ccc2ccccc2c1` [Compound 31], the pIC50 was 6.56.

With `O=C1c2ccccc2C(=O)N1CCCCn1cnc(-c2ccncc2)c1-c1ccc(F)cc1` [Compound 72], the negative-log IC50 (pIC50) was 6.52.

Consider `Fc1ccc(-c2c(-c3ccncc3)ncn2CCCc2ccncc2)cc1` [Compound 83], for which the pIC50 is 6.00.

`OCCSCc1nc(-c2ccncc2)c(-c2ccc(F)cc2)[nH]1` [Compound 13, 5-(4-Fluorophenyl)-2-[4-hydroxy-2-thiabut-1-yl]4-(4-pyridyl)-imidazole]: the pIC50 is 7.10.

As for `CC(=O)NCCCSc1nc(-c2ccc(F)cc2)c(-c2ccncc2)[nH]1` [Compound 34], the pIC50 was 6.70.

As for `CS(=O)(=O)NCCCSc1nc(-c2ccc(F)cc2)c(-c2ccncc2)[nH]1` [Compound 32], the pIC50 is 6.82.

Take `Fc1ccc(-c2ncn(CCCc3cccnc3)c2-c2ccncc2)cc1` [Compound 82]: the pIC50 is 7.70.

As to `CCCS(=O)(=O)Cc1nc(-c2ccncc2)c(-c2ccc(F)cc2)n1COCC[Si](C)(C)C` [Compound 57], the pIC50 was 5.30.

For `O=C1c2ccccc2C(=O)N1CCCOCc1nc(-c2ccncc2)c(-c2ccc(F)cc2)n1CCCN1C(=O)c2ccccc2C1=O` [Compound 54], the pIC50 was 6.70.

For the molecule `CCc1nc(-c2ccncc2)c(-c2ccc(F)cc2)n1CCCc1ccccc1` [Compound 67], the pIC50 was 6.52.

As for `Cc1nc(-c2ccc(F)cc2)c(-c2ccncc2)n1CCCN1C(=O)c2ccccc2C1=O` [Compound 62], the pIC50 is 6.44.

As for `CCOCCc1nc(-c2ccc(F)cc2)c(-c2ccncc2)n1CCCN1C(=O)c2ccccc2C1=O` [Compound 61], the negative logarithm of the IC50 (pIC50) is 6.70.

Regarding `O=C1c2ccccc2C(=O)N1CCCCc1nc(-c2ccncc2)c(-c2ccc(F)cc2)[nH]1` [Compound 47], the pIC50 is 6.55.

`O=C1c2ccccc2C(=O)N1CCCn1cnc(-c2ccncc2)c1-c1ccc(F)cc1` [Compound 70]: the pIC50 was 6.30.

`CCc1nc(-c2ccncc2)c(-c2ccc(F)cc2)n1CCCN1C(=O)c2ccccc2C1=O` [Compound 65]: the pIC50 is 7.70.

Regarding `Fc1ccc(-c2nc(Br)n(CCCc3ccccc3)c2-c2ccncc2)cc1` [Compound 74], the pIC50 is 6.70.

In the case of `COCc1nc(-c2ccc(F)cc2)c(-c2ccncc2)n1CCCN1C(=O)c2ccccc2C1=O` [Compound 58], the pIC50 was 7.12.

As to `CCCSCc1nc(-c2ccc(F)cc2)c(-c2ccncc2)[nH]1` [Compound 35], the pIC50 is 7.52.

Consider `Fc1ccc(-c2c(-c3ccncc3)ncn2CCCc2cccnc2)cc1` [Compound 81], for which the pIC50 was 6.30.

On to `O=C1c2ccccc2C(=O)N1CCCCn1c(I)nc(-c2ccc(F)cc2)c1-c1ccncc1` [Compound 77], for which the pIC50 was 6.35.

As for `COCc1nc(-c2ccncc2)c(-c2ccc(F)cc2)n1CCCN1C(=O)c2ccccc2C1=O` [Compound 60], the pIC50 is 6.40.

In the case of `Fc1ccc(-c2ncn(CCOc3ccccc3)c2-c2ccncc2)cc1` [Compound 86], the pIC50 is 7.40.

In the case of `Fc1ccc(-c2c(-c3ccncc3)ncn2CCOc2ccccc2)cc1` [Compound 85], the pIC50 was 5.70.

With `CCc1nc(-c2ccc(F)cc2)c(-c2ccncc2)n1CCCN1C(=O)c2ccccc2C1=O` [Compound 64], the pIC50 was 7.10.

`CCC(=O)Cn1cnc(-c2ccc(F)cc2)c1-c1ccncc1` [Compound 80]: the pIC50 is 6.70.

`Fc1ccc(-c2ncn(CCCc3ccncc3)c2-c2ccncc2)cc1` [Compound 84]: the pIC50 is 8.00.

On to `CCCCCCCCCCSc1nc(-c2ccc(F)cc2)c(-c2ccncc2)[nH]1` [Compound 41], for which the pIC50 was less than 5.00.

The next experiment deals with T1, p38 (Homo sapiens, UniProt Q16539).
T1 construct: 6xHis (N); made in house; host or cells: E. coli
T1 sequence (Q16539 whole entry): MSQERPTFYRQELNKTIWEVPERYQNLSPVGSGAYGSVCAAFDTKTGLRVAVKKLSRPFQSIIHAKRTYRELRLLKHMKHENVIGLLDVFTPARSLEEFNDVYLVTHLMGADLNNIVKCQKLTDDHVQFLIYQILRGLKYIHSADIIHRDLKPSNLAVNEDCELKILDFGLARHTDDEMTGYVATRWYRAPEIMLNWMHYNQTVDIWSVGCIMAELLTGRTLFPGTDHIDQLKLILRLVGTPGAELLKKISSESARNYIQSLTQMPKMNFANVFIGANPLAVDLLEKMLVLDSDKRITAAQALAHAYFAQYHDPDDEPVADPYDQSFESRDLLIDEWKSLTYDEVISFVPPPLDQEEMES
Nature of the experiment: in vitro inhibition of p38 (CPSB): purified recombinant 6xHis-p38, myelin basic protein substrate, 33P-ATP. It counts as biochemical.
Conditions: not given
With `CC(=O)OCCCCc1nc(-c2ccncc2)c(-c2ccc(F)cc2)[nH]1` [Compound 16a, 4-[5(4)-(4-Fluorophenyl)-(5)-(4-pyridyl)imidazol-2-yl]butayl acetate], the pIC50 is 5.85.

With `Fc1ccc(-c2[nH]c(S)nc2-c2ccncc2)cc1` [Compound 21], the pIC50 is 5.72.

On to `Fc1ccc(-c2[nH]c(SCC3CC3)nc2-c2ccncc2)cc1` [Compound 23], for which the pIC50 is 5.74 to 6.00.

The experiment is the same for the next values; noted with them: @ 20 μm.
Consider `CNC(=O)Sc1nc(-c2ccc(F)cc2)c(-c2ccncc2)[nH]1` [Compound 5, 5(4)-(4-Fluorophenyl)-2-(N-methylaminocarbonyl)thio-4(5)-(4-pyridyl)-imidazole], for which the CPSB % inhibition is 81%.

Broadly, the pIC50 is the IC50 on a negative log10 scale, so that one unit is a factor of ten.
